Data published in patent US20200270216A1, “COMPOSITIONS AND METHODS FOR INHIBITING N-SMASE2” (The Regents of the University of California, priority 2017, published 2020).
Read-outs that look alike come from different tables or passages of the source.

What was measured:
[1] = test system: Thy1-aSyn mice; assay: Initial efficacy in Thy1-aSyn mice, aSyn immunofluorescence in substantia nigra; format: in vivo; conditions: Thy-1 aSyn mice, 100 mg/kg/day oral, 5 weeks
Method: Mice overexpressing human wild-type a-synuclein under control of the Thy-1 promoter (Thy1-aSyn mice) and control C57B1/6 mice were housed under a 12-hour light/dark cycle and had access to standard chow ad libitum. […] Two hours after the last dose, mice were euthanized by ketamine/xylazine over-anesthesia followed by cardiac puncture and saline transcardial perfusion. Brain tissue from individual mice were dissected.
All staining procedures and data collection were performed by investigators blinded to treatment. Double-immunofluorescence for Clone 42 Anti-aSyn/TH in SN (substantia nigra). Analysis of a-synuclein and tyrosine hydroxylase (TH, the marker of dopaminergic neurons) levels was performed in serially sectioned, free-floating vibratome sections. […]
For the quantification of aSyn and TH fluorescent immunolabeling images of immunofluorescence-labeled sections were acquired using an Agilent (Santa Clara, Calif.) microarray scanner equipped with a krypton/argon laser (647 nm) at 10 μm resolution with the photomultiplier tube set at 5% for aSyn and 10% for TH. Immunofluorescence intensity was measured using ImageJ in the appropriate region of interest. TH staining was quantified in the SN pars compact and SN pars reticulate. […]

[2] = Pharmacokinetic / brain permeability study, LC-MS/MS of brain and plasma; format: in vivo, C57BL6 mice; conditions: C57BL/6J, mouse, mice, 100 mg/kg oral gavage
Method: (§1) Brain permeability and target engagement studies were conducted in C57BL/6J mice. […] Drug level evaluation in brain and plasma samples was performed by LC-MS/MS analysis. Brain tissue was homogenized and nSMase2 activity measured as described above.

[3] = target: T1, nSMase2 (Mus musculus, UniProt Q9JJY3); assay: Target engagement: nSMase activity in brain homogenates of treated mice; format: in vivo, C57BL6 mice; conditions: 100 mg/kg oral gavage, 4 hours
T1 construct: from tissue; host or cells: mouse brain (cortical homogenate)
T1 sequence (Q9JJY3 1-655): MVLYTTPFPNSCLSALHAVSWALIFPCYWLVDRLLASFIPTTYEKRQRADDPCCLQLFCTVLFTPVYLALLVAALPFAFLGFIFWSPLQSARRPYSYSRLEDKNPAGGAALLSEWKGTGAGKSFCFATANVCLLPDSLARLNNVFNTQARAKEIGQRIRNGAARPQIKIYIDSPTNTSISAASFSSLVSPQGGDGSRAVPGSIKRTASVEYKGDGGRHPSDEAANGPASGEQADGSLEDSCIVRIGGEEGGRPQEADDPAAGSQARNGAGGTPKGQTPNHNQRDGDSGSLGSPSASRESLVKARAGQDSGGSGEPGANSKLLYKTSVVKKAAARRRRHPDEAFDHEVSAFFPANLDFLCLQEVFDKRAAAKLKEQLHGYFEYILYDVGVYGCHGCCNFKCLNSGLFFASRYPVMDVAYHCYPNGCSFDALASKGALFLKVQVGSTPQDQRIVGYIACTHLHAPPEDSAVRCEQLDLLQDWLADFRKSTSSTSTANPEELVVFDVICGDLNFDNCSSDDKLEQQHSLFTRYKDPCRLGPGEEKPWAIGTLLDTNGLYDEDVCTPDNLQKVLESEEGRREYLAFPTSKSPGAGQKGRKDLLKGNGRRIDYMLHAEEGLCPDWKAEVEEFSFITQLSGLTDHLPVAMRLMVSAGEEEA
Method: Alternatively, mice were treated with the compounds by a parental route and after euthanization the brain is removed and homogenized using 100 mM Tris-HCl pH 7.5, 100 mM sucrose, 100 μM PMSF, 1× protease inhibitor cocktail, and diluted to 2× in reaction buffer prior to the assay and nSMase2 activity is measured. The reaction was started by adding 10 μL of the working solution (100 μM Amplex Red reagent containing 2 U/mL HRP, 0.2 U/mL choline oxidase, 8 U/mL of alkaline phosphatase, and 0.5 mM sphingomyelin) and the progression of the reaction was monitored at 540/590 nm (Ex/Em) for 2 h at 37° C. The activity of nSMase2 at 2 hrs was plotted as percentage of control using PrismGraphPad.
as §1

Which “aSyn levels in the substantia nigra (SN)” value [1] does the source give for O=c1[nH]c(=S)[nH]c(-c2ccccc2)c1Cc1c(O)ccc2ccccc12 [cambinol] here?
The value was “trend to decrease”.

And the concentration at 4 h ([2]; brain, read-out: level in brain)?
The concentration at 4 h was 135 ± 60.9 ng/g.

And the concentration at 4 h ([2]; plasma, read-out: level in plasma)?
The concentration at 4 h was 8150 ± 2450 ng/mL.

What about the “inhibition (decrease) of nSMase activity in brain/cortical homogenates vs vehicle” value [3] of the same compound?
The value was 26.8%.
